Measured values as given in patent US7723523B2, “Tetrahydropyridothiophenes” (4SC AG, priority 2004, dated 2010).

What was measured:
[1] = system: RKO (RKOp27) human colon adenocarcinoma cells; assay: Alamar Blue cell viability assay, anti-proliferative/cytotoxic activity on proliferating RKOp27 cells; format: cell-based; conditions: absence of Ponasterone A, 72 hours incubation, read-out: IC50 RKO p27 proliferating
How it was run: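 RKOp27 subclone of RKO cells, 4000/well in DMEM with 10% FCS, was treated 24 h after seeding with semi-log compound dilutions in quadruplicate for 72 h at 37 °C, 5% CO2. Alamar Blue fluorescence (ex 544/em 590 nm) was read as % viability of untreated cells, and IC50 was taken from concentration-effect curves.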

[2] = system: RKO colon adenocarcinoma cells (RKOp27) arrested by expression of ectopic p27Kip1; assay: Alamar Blue cell viability assay on RKOp27 cells arrested by Ponasterone A-induced p27Kip1 (cell cycle specific mode of action); format: cell-based; conditions: Homo sapiens, RKOp27, 72 h, cells arrested by p27Kip1 induced with 10 μM Ponasterone A, 72 hours incubation, read-out: IC50 RKO p27 arrested
How it was run: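 Viability measured by Alamar Blue fluorescence (ex 544, em 590 nm) after 72 h, 37 °C compound exposure in quadruplicate, normalized to untreated cells as 100%. Cells were p27Kip1-arrested RKOp27, induced with 10 μM Ponasterone A at seeding; compound added 24 h later.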

Row | Structure (SMILES) | IC50 [1] | IC50 [2]
1 | CCOc1ccccc1/C=C/C(=O)Nc1sc2c(c1C#N)CCN(C(=O)OCCc1ccccn1)C2 [Example 239, 3-Cyano-2-[(E)-3-(2-ethoxy-phenyl)-allanoylamino]-4,7-dihydro-5H-thieno[2,3-c]pyridine-6-carboxylic acid 2-pyridin-2-yl-ethyl ester] | ≤ 2 µM | ≥ 100 µM
2 | COCCOC(=O)N1CCc2c(sc(NC(=O)/C=C/c3ccco3)c2C#N)C1 [Example 240, 3-Cyano-2-((E)-3-furan-2-yl-allanoylamino)-4,7-dihydro-5H-thieno[2,3-c]pyridine-6-carboxylic acid 2-methoxy-ethyl ester] | ≤ 2 µM | ≥ 100 µM
3 | N#Cc1c(NC(=O)/C=C/c2ccco2)sc2c1CCN(C(=O)OCc1ccccn1)C2 [Example 241, 3-Cyano-2-((E)-3-furan-2-yl-allanoylamino)-4,7-dihydro-5H-thieno[2,3-c]pyridine-6-carboxylic acid pyridin-2-ylmethyl ester] | ≤ 2 µM | ≥ 100 µM
4 | N#Cc1c(NC(=O)/C=C/c2ccco2)sc2c1CCN(C(=O)OCc1cccnc1)C2 [Example 242, 3-Cyano-2-((E)-3-furan-2-yl-allanoylamino)-4,7-dihydro-5H-thieno[2,3-c]pyridine-6-carboxylic acid pyridin-3-ylmethyl ester] | ≤ 2 µM | ≥ 100 µM
5 | N#Cc1c(NC(=O)/C=C/c2ccco2)sc2c1CCN(C(=O)OCCc1ccccn1)C2 [Example 243, 3-Cyano-2-((E)-3-furan-2-yl-allanoylamino)-4,7-dihydro-5H-thieno[2,3-c]pyridine-6-carboxylic acid 2-pyridin-2-yl-ethyl ester] | ≤ 2 µM | ≥ 100 µM
